The subject of data set [1] is 20-HETE synthase derived from rat kidney microsome. The data set is described as follows: Inhibitory effect of 20-HETE synthase derived from rat kidney microsome. To be noted: SHR rat kidney microsome; for IC50: concentration at which 20-HETE production was inhibited to 50%; for Inhibition (1 µM): inhibition rate of 20-HETE production, subject compound 1 μM, 3H-arachidonic acid, NADPH, 1.5 hours at 37° C., pH 7.4. In kind it is biochemical. Here is the method:
[Inhibitory Effect of 20-HETE Synthase Derived from Rat Kidney Microsome]
Regarding the compounds listed in the Table described above, their inhibitory activities on production of 20-HETE were examined.
This examination was carried out based on the method described in J. Pharmacol. Exp. Ther., Vol. 268, p. 474 (1994).
The subject compound in an amount of 1 μM was added to a 50 mM of 3-morpholinopropanesulfonic acid buffer (MOPS) (pH 7.4), containing 5 mM of magnesium chloride, and 1 mM of ethylenediaminetetraacetic acid (EDTA) disodium salt.
Subsequently, the rat kidney microsome fraction prepared from the kidney of a spontaneously hypertensive rat (male, 6 weeks of age) as an enzyme, [5,6,8,9,11,12,14,15] tritium-arachidonic acid (supplied by Amasham) as a substrate, and NADPH (supplied by Sigma) as a coenzyme were added, and were reacted for 1.5 hours at 37° C.
After the reaction was quenched by adding formic acid (supplied by Wako Pure Chemical Industries Ltd.) to the reaction solution, acetonitrile (final concentration of 50%) was added thereto, and the mixture was allowed to stand for 1.5 hours at room temperature. The amount of 20-HETE production was measured by using a high performance liquid chromatography having a detector for radioactive substances (supplied by Gilson), equipped with an ODS column (Biocyl C18, supplied by Bio-rad).
Setting an amount of 20-HETE production to 100% when no subject compound was added, the inhibition rate (%) was calculated from the amount of 20-HETE production when a subject compound was added.
In addition, setting an amount of 20-HETE production to 100% when no subject compound was added, the concentration of the subject compound at which the production of the 20-HETE was inhibited to 50% when the subject compound is added (IC50 value) was also calculated.

Compound `O/N=C/Nc1ccc(OCc2cc(F)ccc2F)nc1` [Comp. 73] yielded a melting point of 158.5 to 159.5 °C. Moreover, in data set [1], the IC50 is 6.4 nM and the “Inhibition (1 µM)” value worked out at 105.0%.
For `O/N=C/Nc1ccc(SC2CCCC2)nc1` [Comp. 109], the melting point lay in the range of 153.5 to 154.5 °C. Further, in data set [1], the IC50 was found to be 11.5 nM and the “Inhibition (1 µM)” value is 82.1%.
`OCCCSc1ccc(N/C=N/O)cn1` [Comp. 120]: the melting point fell in the range of 105 to 105.5 °C. For the same compound, in data set [1], the concentration for half-maximal inhibition (IC50) was 117 nM and the “Inhibition (1 µM)” value was 102.0%.
On to `CC(C)Oc1ccc(N/C=N/O)cn1` [Comp. 8], for which the melting point lay in the range of 116.5 to 117 °C. Also, in data set [1], the IC50 worked out at 603 nM and the “Inhibition (1 µM)” value was determined as 71.0%.
Taken in the same sequence, the figures for `CCC(C)Sc1ccc(N/C=N/O)cn1` (stereo not drawn) [Comp. 111] were 125.5 to 127.5 °C, 33.8 nM and 76.8%.
Taken in the same sequence, the figures for `COc1ccccc1COc1ccc(N/C=N/O)cn1` [Comp. 72] were 146.5 to 147.5 °C, 59 nM and 92.9%.
In turn, `COCCOc1ccc(N/C=N/O)cn1` [Comp. 7] yielded a melting point of 104.5 to 106 °C. Further, in data set [1], the IC50 turned out to be 781 nM and the “Inhibition (1 µM)” value is given as 41.9%.
For the compound `O/N=C/Nc1ccc(OCc2ccc(F)cc2)nc1` [Comp. 80], the melting point fell in the range of 166.5 to 167.5 °C. For the same compound, in data set [1], the half-maximal inhibitory concentration (IC50) is 3.9 nM and the “Inhibition (1 µM)” value is 102.9%.
Taken in the same sequence, the figures for `O/N=C/Nc1ccc(SCc2ccco2)nc1` [Comp. 110] were 140.5 to 141.5 °C, 12.1 nM and 85.7%.
`CN(C)CCCOc1ccc(N/C=N/O)cn1` [Comp. 132]: the melting point fell in the range of 108 to 112 °C. This compound also returned an IC50 in data set [1] of 566 nM.
With `OCCSc1ccc(N/C=N/O)cn1` [Comp. 107], the melting point was in the range of 115 to 115.5 °C. For the same compound, in data set [1], the concentration for half-maximal inhibition (IC50) was determined as 294 nM and the “Inhibition (1 µM)” value worked out at 83.1%.
Taken in the same sequence, the figures for `CC(C)CCOc1ccc(N/C=N/O)cn1` [Comp. 53] were 123 to 125 °C, 6.8 nM and 108.5%.
Taken in the same sequence, the figures for `C/C=C/COc1ccc(N/C=N/O)cn1` [Comp. 45] were 143 to 144.5 °C, 10.7 nM and 80.3%.
With `CCOCCCOc1ccc(N/C=N/O)cn1` [Comp. 59], the melting point was in the range of 99 to 100 °C. In addition, in data set [1], the IC50 worked out at 4.4 nM and the “Inhibition (1 µM)” value is listed as 109.6%.
Taken in the same sequence, the figures for `C#CCOc1ccc(N/C=N/O)cn1` [Comp. 121] were 143.5 to 144.5 °C, 400 nM and 99.8%.
Taken in the same sequence, the figures for `O/N=C/Nc1ccc(OCC2CCCO2)nc1` (stereo not drawn) [Comp. 96] were 114 to 115 °C, 140 nM and 92.3%.
Consider `CN(C)CCCCCCOc1ccc(N/C=N/O)cn1` [Comp. 133], for which the melting point lay within 110 to 111.5 °C. In data set [1], this compound registered an IC50 of 53.6 nM.
The compound `CCCCOc1ccc(N/C=N/O)cn1` [Comp. 10] registered a melting point of 127 to 128 °C. Further, in data set [1], the half-inhibitory concentration (IC50) is 167 nM and the “Inhibition (1 µM)” value came to 106.3%.
For the compound `CN1CCC(CCOc2ccc(N/C=N/O)cn2)CC1` [Comp. 128], the melting point was 131 to 133 °C. Also, in data set [1], the midpoint of inhibition, the IC50, lay at 312 nM.
As for `COc1cccc(COc2ccc(N/C=N/O)cn2)c1OC` [Comp. 82], the melting point was 128.5 to 129 °C. In data set [1], half-maximal inhibition (IC50) required 60.1 nM and the “Inhibition (1 µM)” value came to 104.5%.
Taken in the same sequence, the figures for `O/N=C/Nc1ccc(OCCc2cccs2)nc1` [Comp. 98] were 137.5 to 138.5 °C, 4.3 nM and 100.7%.
Taken in the same sequence, the figures for `CSCCCOc1ccc(N/C=N/O)cn1` [Comp. 93] were 109 to 111 °C, 6.6 nM and 97.4%.
Taken in the same sequence, the figures for `CC#CCOc1ccc(N/C=N/O)cn1` [Comp. 65, N-[2-(2-butyn-1-oxy)pyridin-5-yl]-N′-hydroxyformamidine] were 155.5 to 157 °C, 68.2 nM and 86.9%.
Regarding `C=CCCOc1ccc(N/C=N/O)cn1` [Comp. 55], the melting point is 119 to 120 °C. For the same compound, the “Inhibition (1 µM)” value in data set [1] is recorded as 87.3%.
Regarding `O/N=C/Nc1ccc(OCc2ccccc2)nc1` [Comp. 9], the melting point was 163.5 to 164 °C. In addition, in data set [1], the IC50 is 9.1 nM and the “Inhibition (1 µM)” value amounted to 82.9%.
Taken in the same sequence, the figures for `COc1ccc(COc2ccc(N/C=N/O)cn2)cc1` [Comp. 77] were 164.5 to 165.5 °C, 3.3 nM and 100.3%.
Taken in the same sequence, the figures for `C=CCCCOc1ccc(N/C=N/O)cn1` [Comp. 54] were 120 to 122 °C, 5.9 nM and 111.7%.
Taken in the same sequence, the figures for `N#Cc1cccc(COc2ccc(N/C=N/O)cn2)c1` [Comp. 81] were 166.5 to 167 °C, 1.7 nM and 104.4%.
Compound `CC(C)Sc1ccc(N/C=N/O)cn1` [Comp. 102] displayed a melting point of 141 to 142 °C. Besides, in data set [1], half-maximal inhibition (IC50) was put at 18.2 nM and the “Inhibition (1 µM)” value is listed as 74.5%.
In the case of `O/N=C/Nc1ccc(OCC2COCO2)nc1` (stereo not drawn) [Comp. 87], the melting point is 186.5 to 187 °C. In data set [1], half-maximal inhibition (IC50) required 264 nM and the “Inhibition (1 µM)” value amounted to 87.0%.
Taken in the same sequence, the figures for `CSCCOc1ccc(N/C=N/O)cn1` [Comp. 92] were 111.5 to 112 °C, 71.9 nM and 87.6%.
Taken in the same sequence, the figures for `CC/C=C/COc1ccc(N/C=N/O)cn1` [Comp. 47] were 82 to 84 °C, 45.4 nM and 99.2%.
Taken in the same sequence, the figures for `O/N=C/Nc1ccc(OCCCn2cccc2)nc1` [Comp. 91] were 140 to 141 °C, 6.4 nM and 103.0%.
On to `O/N=C/Nc1ccc(OCCc2ccsc2)nc1` [Comp. 99], for which the melting point is 138 to 140 °C. In data set [1], it took 1.9 nM to reach half-maximal inhibition (IC50) and the “Inhibition (1 µM)” value is given as 95.4%.
`CN1CCCC(COc2ccc(N/C=N/O)cn2)C1` (stereo not drawn) [Comp. 124]: the melting point was in the range of 122 to 124 °C. Further, in data set [1], the IC50 turned out to be 142 nM and the “Inhibition (1 µM)” value came to 92.6%.
Taken in the same sequence, the figures for `O/N=C/Nc1ccc(OCC2CCCCO2)nc1` (stereo not drawn) [Comp. 97] were 149.5 to 152.5 °C, 58.1 nM and 85.5%.
In the case of `CCN(CC)CCSc1ccc(N/C=N/O)cn1` [Comp. 127], the melting point fell in the range of 124.5 to 125.5 °C. Besides, 330 nM corresponded to half-maximal inhibition in data set [1] (IC50).
The compound `C#CCCCOc1ccc(N/C=N/O)cn1` [Comp. 56] returned a melting point of 124.5 to 125.5 °C. Moreover, in data set [1], the 50% inhibitory concentration (IC50) turned out to be 14.7 nM and the “Inhibition (1 µM)” value turned out to be 102.1%.
As for `CCN(CC)CCC(Oc1ccc(N/C=N/O)cn1)C(F)(F)F` (stereo not drawn) [Comp. 129], the melting point lay in the range of 109 to 111 °C.
Compound `CN(C)CC(C)(C)COc1ccc(N/C=N/O)cn1` [Comp. 123, N-[2-(3-dimethylamino-2,2-dimethylpropyl-1-oxy)pyridin-5-yl]-N′-hydroxyformamidine] had a melting point of 74 to 76.5 °C. Also, in data set [1], the IC50 was determined as 0.6 nM and the “Inhibition (1 µM)” value was 97.5%.
Taken in the same sequence, the figures for `CCCCOCCOc1ccc(N/C=N/O)cn1` [Comp. 61] were 113 to 114.5 °C, 13.1 nM and 99.8%.
Taken in the same sequence, the figures for `O/N=C/Nc1ccc(OCCOc2ccccc2)nc1` [Comp. 94] were 153 to 154 °C, 3.2 nM and 100.3%.
`COc1cccc(COc2ccc(N/C=N/O)cn2)c1` [Comp. 78] showed a melting point of 126 to 127 °C. In addition, in data set [1], the IC50 was determined as 4.2 nM and the “Inhibition (1 µM)” value is recorded as 100.2%.
Taken in the same sequence, the figures for `CC#CCCOc1ccc(N/C=N/O)cn1` [Comp. 46] were 151 to 152 °C, 9.8 nM and 89.9%.
In turn, `O/N=C/Nc1ccc(OCCc2ccccn2)nc1` [Comp. 5] gave a melting point of 128.5 to 130 °C. Also, inhibition in data set [1] was half-maximal at 14.9 nM (IC50).
In the case of `CN(C)CCSc1ccc(N/C=N/O)cn1` [Comp. 126], the melting point lay in the range of 153.5 to 154.5 °C.
The same measure, in the same setting: to `CCN(CC)CCCC(C)Oc1ccc(N/C=N/O)cn1` (stereo not drawn) [Comp. 130] belongs 122 °C (dec.).

The IC50 is the point on the concentration scale where inhibition reaches its midpoint. A lower IC50 goes with inhibition by little substance. A word on the melting point: it is the temperature of the solid-liquid transition.

Source of the values: US6670382B2, “Hydroxyformamidine derivatives and medicines containing the same” (Taisho Pharmaceutical Co., Ltd., priority 2000, dated 2003).
